Results as given in PMC6981637, “Tetrahydroquinoline-Isoxazole/Isoxazoline Hybrid Compounds as Potential Cholinesterases Inhibitors: Synthesis, Enzyme Inhibition Assays, and Molecular Modeling Studies” (International Journal of Molecular Sciences, 2019).
Several values for one entry are separate records, joined by “and”; a condition that tells them apart may be missing. Equal values may be shown once. Read-outs that look alike come from different tables or passages of the source.

How the values were obtained:
[1] = molecular target: T1, BChE (from bovine serum) (Bos taurus, UniProt P32749); experiment: BChE inhibitory activity (Ellman method); format: biochemical; conditions: for IC50: average from three independent experiments ± SEM; for selectivity against BChE: conclusions
T1 construct: purchased Sigma-Aldrich
T1 sequence (P32749 29-602): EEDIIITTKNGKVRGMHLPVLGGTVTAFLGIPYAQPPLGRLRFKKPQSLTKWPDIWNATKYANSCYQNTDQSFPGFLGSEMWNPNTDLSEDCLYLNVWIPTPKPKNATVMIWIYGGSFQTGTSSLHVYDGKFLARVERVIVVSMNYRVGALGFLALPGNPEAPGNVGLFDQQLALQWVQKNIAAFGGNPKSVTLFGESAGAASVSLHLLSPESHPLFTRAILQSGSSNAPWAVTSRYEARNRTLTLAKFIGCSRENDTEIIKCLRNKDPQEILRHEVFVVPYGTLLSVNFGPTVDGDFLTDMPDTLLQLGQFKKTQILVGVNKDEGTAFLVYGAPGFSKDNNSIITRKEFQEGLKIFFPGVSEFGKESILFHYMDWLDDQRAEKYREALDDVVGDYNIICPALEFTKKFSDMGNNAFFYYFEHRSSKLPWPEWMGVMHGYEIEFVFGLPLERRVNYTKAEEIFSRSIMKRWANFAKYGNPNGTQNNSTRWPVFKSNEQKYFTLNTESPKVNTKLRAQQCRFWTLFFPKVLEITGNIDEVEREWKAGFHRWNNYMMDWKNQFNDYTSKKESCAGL

[2] = molecular target: AChE (from Electrophorus electricus) (Electrophorus electricus, UniProt O42275)
Sequence of AChE (from Electrophorus electricus) (O42275 24-633): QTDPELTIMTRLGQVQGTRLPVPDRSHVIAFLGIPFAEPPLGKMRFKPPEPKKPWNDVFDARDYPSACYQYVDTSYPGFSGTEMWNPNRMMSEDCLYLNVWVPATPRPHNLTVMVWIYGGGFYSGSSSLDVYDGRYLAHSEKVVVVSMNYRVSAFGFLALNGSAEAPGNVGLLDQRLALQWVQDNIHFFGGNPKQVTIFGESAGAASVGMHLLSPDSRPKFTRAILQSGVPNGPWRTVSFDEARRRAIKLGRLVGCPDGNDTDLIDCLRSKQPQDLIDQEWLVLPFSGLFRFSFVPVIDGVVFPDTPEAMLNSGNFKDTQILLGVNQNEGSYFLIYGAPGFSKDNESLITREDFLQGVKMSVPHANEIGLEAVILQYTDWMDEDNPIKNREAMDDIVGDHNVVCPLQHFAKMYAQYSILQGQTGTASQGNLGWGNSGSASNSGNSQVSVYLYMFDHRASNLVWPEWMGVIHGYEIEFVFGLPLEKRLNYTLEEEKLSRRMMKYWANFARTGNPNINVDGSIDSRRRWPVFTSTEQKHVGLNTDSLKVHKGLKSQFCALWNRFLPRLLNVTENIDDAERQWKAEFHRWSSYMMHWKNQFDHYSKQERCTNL

[3] = Table 1, THQ–isoxazoline hybrids 5, read-out: IC50 BChE
[4] = Table 2, THQ–isoxazole hybrids 6, read-out: BChE (IC50)

O=C1CCCN1C1CCN(CC2CC(c3ccccc3)=NO2)c2ccccc21 (centres unmarked) [5a, 3-phenyl-5-[(4-(2′-oxopyrrolidin-1′-yl)-3,4-dihydroquinolin-1(2H)-yl)-methyl]-4,5 dihydroisoxazole]
IC50 [1, 3]: 81.9 ± 0.04 µM | SI [2]: 1.06 | IC50 ([2]; read-out: IC50 AChE): 77.37 ± 0.01 µM

COc1ccc(C2=NOC(CN3CCC(N4CCCC4=O)c4ccccc43)C2)cc1 (centres unmarked) [5b, 3-(4-methoxyphenyl)-5-[4-((2′-oxopyrrolidin-1′-yl)-3,4-dihydroquinolin-1(2H)-yl)-methyl]-4,5-dihydroisoxazole]
IC50 [1, 3]: 65.59 ± 0.006 µM | SI [2]: 0.69 | IC50 ([2]; read-out: IC50 AChE): 95.14 ± 0.08 µM

COc1ccc(C2=NOC(CN3CCC(N4CCCC4=O)c4ccccc43)C2)cc1OC (centres unmarked) [5c, 3-(3,4-dimethoxyphenyl)-5-[4-((2′-oxopyrrolidin-1′-yl)-3,4-dihydroquinolin-1(2H)-yl)-methyl]-4,5-dihydroisoxazole]
IC50 ([2]; read-out: IC50 AChE): 100.65 ± 0.05 µM

COc1cc(C2=NOC(CN3CCC(N4CCCC4=O)c4ccccc43)C2)cc(OC)c1OC (centres unmarked) [5d, 3-(3,4,5-trimethoxyphenyl)-5-[4-((2′-oxopyrrolidin-1′-yl)-3,4-dihydroquinolin-1(2H)-yl)-methyl]-4,5-dihydroisoxazole]
IC50 [1, 3]: 13.66 ± 0.01 µM | SI [2]: 0.27 | IC50 ([2]; read-out: IC50 AChE): 49.82 ± 0.03 µM

Cc1ccc2c(c1)C(N1CCCC1=O)CCN2CC1CC(c2ccccc2)=NO1 (centres unmarked) [5e, 5-[(6-methyl-4-(2′-oxopyrrolidin-1′-yl)-3,4-dihydroquinolin-1(2H)-yl)-methyl]-3-phenyl-4,5-dihydroisoxazole]
IC50 [1, 3]: 31.4 ± 0.01 µM | SI [2]: 0.17 | IC50 ([2]; read-out: IC50 AChE): 189.1 ± 0.01 µM

COc1ccc(C2=NOC(CN3CCC(N4CCCC4=O)c4cc(C)ccc43)C2)cc1 (centres unmarked) [5f, 3-(4-methoxyphenyl)-5-[(6-methyl-4-(2′-oxopyrrolidin-1′-yl)-3,4-dihydroquinolin-1(2H)-yl)-methyl]-4,5-dihydroisoxazole]
IC50 [1, 3]: 23.36 ± 0.005 µM | SI [2]: 1.43 | IC50 ([2]; read-out: IC50 AChE): 16.31 ± 0.01 µM

COc1ccc(C2=NOC(CN3CCC(N4CCCC4=O)c4cc(C)ccc43)C2)cc1OC (centres unmarked) [5g, 3-(3,4-dimethoxyphenyl)-5-[(6-methyl-4-(2′-oxopyrrolidin-1′-yl)-3,4-dihydroquinolin-1(2H)-yl)-methyl]-4,5-dihydroisoxazole]
IC50 [1, 3]: 31.49 ± 0.005 µM | SI [2]: 0.32 | IC50 ([2]; read-out: IC50 AChE): 99.71 ± 0.01 µM

COc1cc(C2=NOC(CN3CCC(N4CCCC4=O)c4cc(C)ccc43)C2)cc(OC)c1OC (centres unmarked) [5h, 5-[(6-methyl-4-(2′-oxopyrrolidin-1′-yl)-3,4-dihydroquinolin-1(2H)-yl)-methyl]-3-(3,4,5-trimethoxyphenyl)-4,5-dihydroisoxazole]
IC50 [1, 3]: 63.72 ± 0.001 µM | SI [2]: 1.70 | IC50 ([2]; read-out: IC50 AChE): 37.41 ± 0.03 µM

COc1ccc2c(c1)C(N1CCCC1=O)CCN2CC1CC(c2ccccc2)=NO1 (centres unmarked) [5i, 5-[(6-methoxy-4-(2′-oxopyrrolidin-1′-yl)-3,4-dihydroquinolin-1(2H)-yl)-methyl]-3-phenyl-4,5-dihydroisoxazole]
IC50 [1, 3]: 146.37 ± 0.03 µM | SI [2]: 1.79 | IC50 ([2]; read-out: IC50 AChE): 82.04 ± 0.11 µM

COc1ccc(C2=NOC(CN3CCC(N4CCCC4=O)c4cc(OC)ccc43)C2)cc1 (centres unmarked) [5j, 3-(4-methoxyphenyl)-5-[(6-methoxy-4-(2′-oxopyrrolidin-1′-yl)-3,4-dihydroquinolin-1(2H)-yl)-methyl]-4,5-dihydroisoxazole]
IC50 [1, 3]: 144.71 ± 0.004 µM | SI [2]: 1.55 | IC50 ([2]; read-out: IC50 AChE): 93.66 ± 0.006 µM

COc1ccc2c(c1)C(N1CCCC1=O)CCN2CC1CC(c2ccc(OC)c(OC)c2)=NO1 (centres unmarked) [5k, 3-(3,4-dimethoxyphenyl)-5-[(6-methoxy-4-(2′-oxopyrrolidin-1′-yl)-3,4-dihydroquinolin-1(2H)-yl)-methyl]-4,5-dihydroisoxazole]
IC50 [1, 3]: 255.82 ± 0.01 µM | SI [2]: 16.8 | selectivity for inhibiting AChE [2]: significant selectivity | IC50 ([2]; read-out: IC50 AChE): 15.26 ± 0.02 µM

COc1ccc2c(c1)C(N1CCCC1=O)CCN2CC1CC(c2cc(OC)c(OC)c(OC)c2)=NO1 (centres unmarked) [5l, 5-[(6-methoxy-4-(2′-oxopyrrolidin-1′-yl)-3,4-dihydroquinolin-1(2H)-yl)-methyl]-3-(3,4,5-trimethoxyphenyl)-4,5-dihydroisoxazole]
IC50 [1, 3]: 43.67 ± 0.02 µM | SI [2]: 0.40 | IC50 ([2]; read-out: IC50 AChE): 109.26 ± 0.01 µM

O=C1CCCN1C1CCN(CC2CC(c3ccccc3)=NO2)c2ccc(Cl)cc21 (centres unmarked) [5m, 5-[(6-chloro-4-(2′-oxopyrrolidin-1′-yl)-3,4-dihydroquinolin-1(2H)-yl)-methyl]-3-phenyl-4,5-dihydroisoxazole]
IC50 [1, 3]: 19.09 ± 0.01 µM | SI [2]: 0.63 | selectivity for inhibiting AChE [2]: significant selectivity | IC50 ([2]; read-out: IC50 AChE): 30.1 ± 0.01 µM

COc1ccc(C2=NOC(CN3CCC(N4CCCC4=O)c4cc(Cl)ccc43)C2)cc1 (centres unmarked) [5n, 5-[(6-chloro-4-(2′-oxopyrrolidin-1′-yl)-3,4-dihydroquinolin-1(2H)-yl)-methyl]-3-(4-methoxyphenyl)-4,5-dihydroisoxazole]
IC50 [1, 3]: 22 ± 0.02 µM | SI [2]: 5.19 | selectivity for inhibiting AChE [2]: significant selectivity

COc1ccc(C2=NOC(CN3CCC(N4CCCC4=O)c4cc(Cl)ccc43)C2)cc1OC (centres unmarked) [5o, 3-(4,5-dimethoxyphenyl)-5-[(6-chloro-4-(2′-oxopyrrolidin-1′-yl)-3,4-dihydroquinolin-1(2H)-yl)-methyl]-4,5-dihydroisoxazole]
IC50 [1, 3]: 83.65 ± 0.01 µM | SI [2]: 6.35 | selectivity for inhibiting AChE [2]: significant selectivity | IC50 ([2]; read-out: IC50 AChE): 13.17 ± 0.02 µM

COc1cc(C2=NOC(CN3CCC(N4CCCC4=O)c4cc(Cl)ccc43)C2)cc(OC)c1OC (centres unmarked) [5p, 5-[(6-chloro-4-(2′-oxopyrrolidin-1′-yl)-3,4-dihydroquinolin-1(2H)-yl)-methyl]-3-(3,4,5-trimethoxyphenyl)-4,5-dihydroisoxazole]
IC50 [1, 3]: 106 ± 2 µM | SI [2]: 8.61 | IC50 ([2]; read-out: IC50 AChE): 12.28 ± 0.01 µM

O=C1CCCN1C1CCN(Cc2cc(-c3ccccc3)no2)c2ccccc21 (centres unmarked) [6a, 3-phenyl-5-((4′-(2′’-oxopyrrolidin-1′’-yl)-3′,4′-dihydroquinolin-1′(2′H)-yl)methyl)isoxazole]
IC50 [1, 4]: < 7.18 µM and 4.36 µM | selectivity against BChE [1]: more selective | SI [2]: 0.04 | IC50 ([2]; read-out: AChE (IC50)): 104.74 ± 0.01 µM

COc1ccc(-c2cc(CN3CCC(N4CCCC4=O)c4cc(Br)ccc43)on2)cc1OC (centres unmarked) [6aa, 3-(3,4-dimethoxyphenyl)-5-((6′-bromo-4′-(2′’-oxopyrrolidin-1′’-yl)-3′,4′-dihydroquinolin-1′(2′H)-yl)methyl)isoxazole]
IC50 [1, 4]: < 7.18 µM and 3.97 µM | selectivity against BChE [1]: more selective | times more potent against BChE than for the AChE enzyme ([1]; selectivity for BChE): about 24 times | SI [2]: 0.04 | IC50 ([2]; read-out: AChE (IC50)): 96.1 ± 0.01 µM

COc1cc(-c2cc(CN3CCC(N4CCCC4=O)c4cc(Br)ccc43)on2)cc(OC)c1OC (centres unmarked) [6ab, 5-((6′-bromo-4′-(2′’-oxopyrrolidin-1′’-yl)-3′,4′-dihydroquinolin-1′(2′H)-yl)methyl)-3-(3,4,5-trimethoxyphenyl)isoxazole]
IC50 [1, 4]: 54.09 ± 0.01 µM | SI [2]: 0.36 | IC50 ([2]; read-out: AChE (IC50)): 148.31 ± 0.004 µM

COc1ccc(-c2cc(CN3CCC(N4CCCC4=O)c4ccccc43)on2)cc1 (centres unmarked) [6b, 3-(4-methoxyphenyl)-5-((4′-(2′’-oxopyrrolidin-1′’-yl)-3′,4′-dihydroquinolin-1′(2′H)-yl)methyl)isoxazole]
IC50 [1, 4]: 27.25 ± 0.003 µM | SI [2]: 0.64 | IC50 ([2]; read-out: AChE (IC50)): 42.44 ± 0.01 µM

COc1cc(-c2cc(CN3CCC(N4CCCC4=O)c4ccccc43)on2)cc(OC)c1OC (centres unmarked) [6c, 3-(3,4,5-trimethoxyphenyl)-5-((4′-(2′’-oxopyrrolidin-1′’-yl)-3′,4′-dihydroquinolin-1′(2′H)-yl)methyl)isoxazole]
IC50 [1, 4]: 47.96 ± 0.01 µM | SI [2]: 2.17 | IC50 ([2]; read-out: AChE (IC50)): 22.07 ± 0.01 µM

Cc1ccc2c(c1)C(N1CCCC1=O)CCN2Cc1cc(-c2ccccc2)no1 (centres unmarked) [6d, 5-((6′-methyl-4′-(2′’-oxopyrrolidin-1′’-yl)-3′,4′-dihydroquinolin-1′(2′H)-yl)methyl)-3-phenylisoxazole]
IC50 [1, 4]: 18.51 ± 0.01 µM | SI [2]: 0.49 | IC50 ([2]; read-out: AChE (IC50)): 37.84 ± 0.01 µM

COc1ccc(-c2cc(CN3CCC(N4CCCC4=O)c4cc(C)ccc43)on2)cc1 (centres unmarked) [6e, 3-(4-methoxyphenyl)-5-((6′-methyl-4′-(2′’-oxopyrrolidin-1′’-yl)-3′,4′-dihydroquinolin-1′(2′H)-yl)methyl)isoxazole]
IC50 [1, 4]: 79.81 ± 0.06 µM | SI [2]: 2.62 | IC50 ([2]; read-out: AChE (IC50)): 30.43 ± 0.02 µM

COc1ccc(-c2cc(CN3CCC(N4CCCC4=O)c4cc(C)cc(Cl)c43)on2)cc1OC (centres unmarked) [6f, 5-((8′-chloro-6′-methyl-4′-(2′’-oxopyrrolidin-1′’-yl)-3′,4′-dihydroquinolin-1′(2′H)-yl)methyl)-3-(3,4-dimethoxyphenyl)isoxazole]
IC50 [1, 4]: 370.12 ± 0.03 µM | SI [2]: 6.76 | IC50 ([2]; read-out: AChE (IC50)): 54.71 ± 0.02 µM

COc1cc(-c2cc(CN3CCC(N4CCCC4=O)c4cc(C)ccc43)on2)cc(OC)c1OC (centres unmarked) [6g, 3-(3,4,5-trimethoxyphenyl)-5-((6′-methyl-4′-(2′’-oxopyrrolidin-1′’-yl)-3′,4′-dihydroquinolin-1′(2′H)-yl)methyl)isoxazole]
IC50 [1, 4]: 78.16 ± 0.01 µM | SI [2]: 1.07 | IC50 ([2]; read-out: AChE (IC50)): 72.94 ± 0.02 µM

COc1ccc2c(c1)C(N1CCCC1=O)CCN2Cc1cc(-c2ccccc2)no1 (centres unmarked) [6h, 5-((6′-methoxy-4′-(2′’-oxopyrrolidin-1′’-yl)-3′,4′-dihydroquinolin-1′(2′H)-yl)methyl)-3-phenylisoxazole]
IC50 [1, 4]: < 7.18 µM and 4.33 µM | selectivity against BChE [1]: more selective | SI [2]: 0.08 | IC50 ([2]; read-out: AChE (IC50)): 52.76 ± 0.01 µM

COc1ccc(-c2cc(CN3CCC(N4CCCC4=O)c4cc(OC)ccc43)on2)cc1 (centres unmarked) [6i, 3-(4-methoxyphenyl)-5-((6′-methoxy-4′-(2′’-oxopyrrolidin-1′’-yl)-3′,4′-dihydroquinolin-1′(2′H)-yl)methyl)isoxazole]
IC50 [1, 4]: 213.22 ± 0.01 µM | SI [2]: 2.52 | IC50 ([2]; read-out: AChE (IC50)): 84.51 ± 0.01 µM

CCc1ccc2c(c1)C(N1CCCC1=O)CCN2Cc1cc(-c2cc(OC)c(OC)c(OC)c2)no1 (centres unmarked) [6t, 5-((6′-ethyl-4′-(2′’-oxopyrrolidin-1′’-yl)-3′,4′-dihydroquinolin-1′(2′H)-yl)methyl)-3-(3,4,5-trimethoxyphenyl)isoxazole]
IC50 ([2]; read-out: AChE (IC50)): 66.77 ± 0.01 µM

COc1ccc2c3c1O[C@H]1C[C@@H](O)C=C[C@@]31CCN(C)C2 [Galantamine, galantamine, reference compound]
IC50 [1, 3]: 8.8 ± 0.5 µM | IC50 [1, 4]: 8.8 ± 0.5 µM
